Measurements: US11932626B2, “2-pyrimidone analogs as potent antiviral agents against Alphaviruses” (priority 2020, dated 2024)

Legend:
CHIKV = CHIKV virus titer reduction (VTR) assay in NHDF cells; assay type: cell-based; details: Chikungunya virus; for log reduction at 10 µM: CHIKV titer reduction at 10 μM, normal human dermal fibroblasts (NHDF) cells; for EC90: effective concentration of 90% inhibition of virus in a VTR assay, NHDF cells
[1] = test system: CHIKV linked NanoLuc luciferase reporter; assay: microbe, parasite or virus in culture; assay type: cell-based; details: Chikungunya virus, read-out: CHIKV EC50
VEEV = assay: microbe, parasite or virus in culture; assay type: cell-based; details: Venezuelan equine encephalitis virus, NHDF; for EC90: read-out: VEEV EC90; for log reduction at 10 µM: read-out: VEEV VTR
VEEV (TC-83) = assay: microbe, parasite or virus in culture; assay type: cell-based; details: Venezuelan equine encephalitis virus, read-out: VEEV EC50
in vitro = details: human

SMILES: COC(=O)c1c(SCC(=O)NC23CC4CC(CC(C4)C2)C3)nc(=O)[nH]c1C [compound 1]
- log reduction at 10 µM (CHIKV): 6.9
- EC90 (CHIKV): 0.089 µM
- EC50 [1]: 0.66 µM
- EC90 (VEEV): 1.9 µM
- EC50 (VEEV (TC-83)): 4.33 µM
- CC50 (in vitro): > 127 µM

SMILES: Cc1[nH]c(=O)nc(SCC(=O)NC23CC4CC(CC(C4)C2)C3)c1C#N [compound 2]
- log reduction at 10 µM (CHIKV): 1.25
- EC50 [1]: 22.9 µM
- log reduction at 10 µM (VEEV): 1.1
- EC50 (VEEV (TC-83)): > 40 µM
- CC50 (in vitro): > 40 µM

SMILES: O=C(CSc1cc[nH]c(=O)n1)NC12CC3CC(CC(C3)C1)C2 [compound 3, N-(Adamantan-1-Yl)-2-((2-Oxo-1,2-Dihydropyrimidin-4-Yl)Thio)Acetamide]
- log reduction at 10 µM (CHIKV): 7.44
- EC90 (CHIKV): 0.31 µM
- EC50 [1]: 0.5 µM
- EC90 (VEEV): 0.31 µM
- log reduction at 10 µM (VEEV): 4.49
- EC50 (VEEV (TC-83)): 2.5 µM
- CC50 (in vitro): > 40 µM

SMILES: O=C(CSc1cc[nH]c(=O)n1)NC1C2CC3CC(C2)CC1C3 (stereo not shown) [compound 4, N-(Adamantan-2-Yl)-2-((2-Oxo-1,2-Dihydropyrimidin-4-Yl)Thio)Acetamide]
- log reduction at 10 µM (CHIKV): 7.3
- EC90 (CHIKV): 0.61 µM
- EC50 [1]: 0.437 µM
- log reduction at 10 µM (VEEV): 5.88
- EC50 (VEEV (TC-83)): 1.68 µM
- CC50 (in vitro): > 40 µM

SMILES: CC(C)Cc1cc(C(=O)NCCC23CC4CC(CC(C4)C2)C3)nc(=O)[nH]1 [compound 5, N-(2-(Adamantan-1-Yl)Ethyl)-6-Isobutyl-2-Oxo-1,2-Dihydropyrimidine-4-Carboxamide]
- EC50 [1]: 35.2 µM
- EC50 (VEEV (TC-83)): > 40 µM
- CC50 (in vitro): > 40 µM

SMILES: O=C(CNc1cc[nH]c(=O)n1)NC12CC3CC(CC(C3)C1)C2 [compound 6, N-(adamantan-1-yl)-2-((2-oxo-1,2-dihydropyrimidin-4-yl)amino)acetamide]
- EC50 [1]: 11.8 µM
- EC50 (VEEV (TC-83)): > 40 µM
- CC50 (in vitro): > 40 µM

SMILES: O=C(COc1cc[nH]c(=O)n1)NC1C2CC3CC(C2)CC1C3 (stereo not shown) [compound 8, N-(Adamantan-2-Yl)-2-((2-Oxo-1,2-Dihydropyrimidin-4-Yl)Oxy)Acetamide]
- log reduction at 10 µM (CHIKV): 1.05
- EC90 (CHIKV): 0.21 µM
- EC50 [1]: > 40 µM
- EC90 (VEEV): 0.08 µM
- log reduction at 10 µM (VEEV): 1.94
- EC50 (VEEV (TC-83)): > 40 µM
- CC50 (in vitro): > 40 µM

SMILES: Cc1cc(OCC(=O)NC23CC4CC(CC(C4)C2)C3)nc(=O)[nH]1 [compound 9, N-(Adamantan-1-Yl)-2-((6-Methyl-2-Oxo-1,2-Dihydropyrimidin-4-Yl)Oxy)Acetamide]
- log reduction at 10 µM (CHIKV): 1.81
- EC90 (CHIKV): 3.5 µM
- EC50 [1]: 1.2 µM
- EC90 (VEEV): 1.1 µM
- log reduction at 10 µM (VEEV): 1.37
- EC50 (VEEV (TC-83)): 20 µM
- CC50 (in vitro): > 40 µM

SMILES: CC(C)Cc1cc(OCC(=O)NC23CC4CC(CC(C4)C2)C3)nc(=O)[nH]1 [compound 10, N-(Adamantan-1-Yl)-2-((6-Isobutyl-2-Oxo-1,2-Dihydropyrimidin-4-Yl)Oxy)Acetamide]
- log reduction at 10 µM (CHIKV): 8.16
- EC90 (CHIKV): 0.31 µM
- EC50 [1]: 1.15 µM
- EC90 (VEEV): 1.2 µM
- log reduction at 10 µM (VEEV): 2.74
- EC50 (VEEV (TC-83)): 19.7 µM
- CC50 (in vitro): > 40 µM

SMILES: O=C(COc1cc(C2CC2)[nH]c(=O)n1)NC12CC3CC(CC(C3)C1)C2 [compound 11, N-(Adamantan-1-Yl)-2-((6-Cyclopropyl-2-Oxo-1,2-Dihydropyrimidin-4-Yl)Oxy)Acetamide]
- log reduction at 10 µM (CHIKV): 1.05
- EC90 (CHIKV): 0.56 µM
- EC50 [1]: 0.24 µM
- EC90 (VEEV): 1.1 µM
- log reduction at 10 µM (VEEV): 2.97
- EC50 (VEEV (TC-83)): 20.6 µM
- CC50 (in vitro): > 40 µM

SMILES: CC(C)(C)c1ccc(NC(=O)c2cc[nH]c(=O)n2)cc1 [compound 30, N-(4-(Tert.-Butyl)Phenyl)-2-Oxo-1,2-Dihydropyrimidine-4-Carboxamide]
- EC50 [1]: 26.4 µM
- EC50 (VEEV (TC-83)): > 40 µM
- CC50 (in vitro): > 40 µM

SMILES: CC(C)Cc1cc(C(=O)Nc2ccc(C(C)(C)C)cc2)nc(=O)[nH]1 [compound 31, N-(4-(Tert.-Butyl)Phenyl)-6-Isobutyl-2-Oxo-1,2-Dihydropyrimidine-4-Carboxamide]
- EC50 [1]: 13.1 µM
- EC50 (VEEV (TC-83)): > 40 µM
- CC50 (in vitro): > 40 µM

SMILES: O=C(COc1cc(OCCO)[nH]c(=O)n1)NC12CC3CC(CC(C3)C1)C2 [compound 32, N-(adamantan-1-yl)-2-((6-(2-hydroxyethoxy)-2-oxo-1,2-dihydropyrimidin-4-yl)oxy)acetamide]
- log reduction at 10 µM (CHIKV): 3.45
- EC90 (CHIKV): 0.61 µM
- EC50 [1]: 4.69 µM
- EC50 (VEEV (TC-83)): > 40 µM
- CC50 (in vitro): > 40 µM

SMILES: O=C(COc1nc(=O)[nH]c(N2CCOCC2)c1F)NC12CC3CC(CC(C3)C1)C2 [compound 33, N-(Adamantan-1-Yl)-2-((5-Fluoro-6-Morpholino-2-Oxo-1,2-Dihydropyrimidin-4-Yl)Oxy)Acetamide]
- log reduction at 10 µM (CHIKV): 6.08
- EC90 (CHIKV): 0.15 µM
- EC50 [1]: 1.8 µM
- EC50 (VEEV (TC-83)): 23.9 µM
- CC50 (in vitro): > 40 µM

SMILES: CCCCOC(=O)c1cc(SCC(=O)NC23CC4CC(CC(C4)C2)C3)nc(=O)[nH]1 [compound 39, Butyl 6-((2-((-Adamantan-1-Yl)Amino)-2-Oxoethyl)Thio)-2-Oxo-2,3-Dihydropyrimidine-4-Carboxylate]
- EC50 [1]: > 40 µM
- EC50 (VEEV (TC-83)): > 40 µM
- CC50 (in vitro): > 40 µM

SMILES: O=C(CSc1cc(C(=O)O)[nH]c(=O)n1)NC12CC3CC(CC(C3)C1)C2 [compound 40, 6-((2-((adamantan-1-yl)amino)-2-oxoethyl)thio)-2-oxo-2,3-dihydropyrimidine-4-carboxylic acid]
- EC50 [1]: > 40 µM
- EC50 (VEEV (TC-83)): > 40 µM
- CC50 (in vitro): > 40 µM

SMILES: O=C(CSc1cc[nH]c(=O)n1)NCC12CC3CC(CC(C3)C1)C2 [compound 41, N-((Adamantan-1-Yl)Methyl)-2-((2-Oxo-1,2-Dihydropyrimidin-4-Yl)Thio)Acetamide]
- EC50 [1]: > 40 µM
- EC50 (VEEV (TC-83)): > 40 µM
- CC50 (in vitro): > 40 µM

SMILES: O=C(NC12CC3CC(CC(C3)C1)C2)c1cc[nH]c(=O)n1 [compound 42, N-((Adamantan-1-Yl)-2-Oxo-1,2-Dihydropyrimidine-4-Carboxamide]
- EC50 [1]: > 40 µM
- EC50 (VEEV (TC-83)): > 40 µM
- CC50 (in vitro): > 40 µM

SMILES: CC(C)Cc1cc(C(=O)NC23CC4CC(CC(C4)C2)C3)nc(=O)[nH]1 [compound 43, N-(Adamantan-1-Yl)-6-Isobutyl-2-Oxo-1,2-Dihydropyrimidine-4-Carboxamide]
- EC50 [1]: > 40 µM
- EC50 (VEEV (TC-83)): > 40 µM
- CC50 (in vitro): > 40 µM

SMILES: O=C(COc1cc(OC2COC2)[nH]c(=O)n1)NC12CC3CC(CC(C3)C1)C2 [compound 53, N-(Adamantan-1-Yl)-2-((6-(Oxetan-3-Yloxy)-2-Oxo-1,2-Dihydropyrimidin-4-Yl)Oxy)Acetamide]
- EC50 [1]: 27.9 µM
- EC50 (VEEV (TC-83)): > 40 µM
- CC50 (in vitro): > 40 µM

SMILES: CC(C)Oc1[nH]c(=O)nc(OCC(=O)NC23CC4CC(CC(C4)C2)C3)c1F [compound 54, N-(Adamantan-1-Yl)-2-((5-Fluoro-6-Isopropoxy-2-Oxo-1,2-Dihydropyrimidin-4-Yl)Oxy)Acetamide]
- EC50 [1]: 21.5 µM
- EC50 (VEEV (TC-83)): > 40 µM
- CC50 (in vitro): > 40 µM

SMILES: O=C(COc1cc(OCC(F)(F)F)[nH]c(=O)n1)NC12CC3CC(CC(C3)C1)C2 [compound 57, N-(adamantan-1-yl)-2-((2-oxo-6-(2,2,2-trifluoroethoxy)-1,2-dihydropyrimidin-4-yl)oxy)acetamide]
- log reduction at 10 µM (CHIKV): 7.79
- EC90 (CHIKV): 0.3 µM
- EC50 [1]: 2.97 µM
- EC50 (VEEV (TC-83)): > 40 µM
- CC50 (in vitro): > 40 µM
